In patent US20250042896A1, “POLYCYCLIC COMPOUND AS CBL-B INHIBITOR” (HAINAN SIMCERE ZAIMING PHARMACEUTICAL CO., LTD., priority 2021, published 2025):

Key:
[1] = target: Cbl-b protein and UbcH5B-Ub (Homo sapiens (Human), UniProt Q13191); assay: Cbl-b activity assay (HTRF, interaction between Cbl-b protein and UbcH5B-Ub); type: biochemical; details: inhibition of interaction between Biotin-Cbl-b protein and Eu-Ubquitin-UbcH5B, HTRF signal 665 nm/615 nm
Procedure: Experiment purpose: Testing of inhibitory activity of compounds on the interaction between Cbl-b protein and UbcH5B-Ub
Experimental method: Eu-Ubquitin-UbcH5B was prepared by incubating Eu-Ubquitin (Cisbio) with UbcH5B (ENZO), E1 (ENZO) at 37° C. for 4 hours. Eu-Ubquitin-UbcH5B was aliquoted and stored at −80° C. Cbl-b activity assay was performed in 384-well plates (Perkin Elmer). 100 nL of 3-fold serial dilutions of compounds (final concentration 10 μM-0.5 nM, starting concentration 10 μM, 3-fold dilution, 10 points, 10th point being 0.5 nM) and 5 μL of 50 nM Biotin-Cbl-b protein (Sigma) were incubated for 1 hour at room temperature, and the reaction buffer was 50 mM HEPES pH 7.0 (Gibco), 100 mM NaCl (Sigma), 0.01% Triton X-100 (Sigma), 0.01% BSA (Sigma) and 1 mM DTT (Invitrogen). 5 μL of Src mixed solution (40 nM Src (R&D), 2 mM ATP (Sigma), 10 mM MgCl2 (Sigma)) was added to the reaction plate and incubated at room temperature for 3 hours. 10 μL of detection solution (12.5 nM Strepdividin-XL665 (Cisbio), 500 nM Eu-Ubquitin-UbcH5B, […] (Invitrogen), 0.004% BSA (Sigma)) was added to the reaction plate, incubated overnight at room temperature, and the HTRF signal (665 nm/615 nm) was read on Envision (Perkin Elmer). IC50 was calculated using IDBS XLfit.

Jurkat T cells = assay: Jurkat T activation assay (IL-2 release, ELISA); type: cell-based; details: IL-2 release of Jurkat T cells, Anti-Human CD3/CD28 stimulation, 48 hours, IL-2 ELISA
Procedure: Experiment purpose: Testing of effect of compounds on IL-2 release and activation of Jurkat T cells
Experimental method: 96-well cell plates (Corning) were coated with 2 μg/mL Anti-Human CD3 Clone OKT3 (BD) at 37° C. for 4 hours. 3-fold serial dilutions of compounds (final concentration 10 μM-4.6 nM, starting concentration 10 μM, 3-fold dilution, 8 points, 8th point being 4.6 nM) and 220 μL of 1.11×10^6/mL Jurkat T cells (ATCC) were incubated for 1 hour, 5 μL of 45 μg/mL Anti-Human CD28 Clone CD28.2 (BD) was added, mixed evenly, 100 μL was transferred to the aforementioned CD3-coated cell plate, cultured in a cell incubator at 37° C. for 48 hours, and the supernatant was collected and the IL-2 release was detected using an IL-2 ELISA kit (BD). EC50 was analyzed using Prism.

Sequence of Cbl-b protein and UbcH5B-Ub (Q13191 whole entry, species assumed): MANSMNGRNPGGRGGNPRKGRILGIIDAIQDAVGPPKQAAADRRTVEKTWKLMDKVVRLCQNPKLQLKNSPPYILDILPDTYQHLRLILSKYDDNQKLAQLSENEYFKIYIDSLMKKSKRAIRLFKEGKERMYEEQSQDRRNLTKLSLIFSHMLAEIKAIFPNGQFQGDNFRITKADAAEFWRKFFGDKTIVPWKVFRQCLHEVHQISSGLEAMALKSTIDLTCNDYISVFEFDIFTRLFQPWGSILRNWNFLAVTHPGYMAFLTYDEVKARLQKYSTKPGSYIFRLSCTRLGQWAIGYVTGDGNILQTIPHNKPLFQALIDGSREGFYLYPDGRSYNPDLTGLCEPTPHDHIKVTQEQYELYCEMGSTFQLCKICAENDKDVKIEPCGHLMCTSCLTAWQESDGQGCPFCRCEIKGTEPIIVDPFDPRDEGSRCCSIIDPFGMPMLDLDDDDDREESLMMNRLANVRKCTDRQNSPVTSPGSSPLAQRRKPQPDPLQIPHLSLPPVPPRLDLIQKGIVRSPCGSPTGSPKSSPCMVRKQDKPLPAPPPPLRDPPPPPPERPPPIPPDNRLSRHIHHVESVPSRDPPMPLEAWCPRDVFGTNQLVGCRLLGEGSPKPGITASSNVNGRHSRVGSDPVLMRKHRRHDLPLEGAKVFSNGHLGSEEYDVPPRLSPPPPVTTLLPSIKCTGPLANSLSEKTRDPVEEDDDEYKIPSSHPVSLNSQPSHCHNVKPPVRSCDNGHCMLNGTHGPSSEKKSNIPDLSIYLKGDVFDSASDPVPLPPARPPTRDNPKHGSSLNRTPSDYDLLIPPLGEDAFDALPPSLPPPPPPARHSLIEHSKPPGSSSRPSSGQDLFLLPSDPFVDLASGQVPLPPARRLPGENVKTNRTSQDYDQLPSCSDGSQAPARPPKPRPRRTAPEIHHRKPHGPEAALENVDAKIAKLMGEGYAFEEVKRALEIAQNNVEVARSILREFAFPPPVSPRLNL

Compound	IC50 [1] [nM]	EC50 (Jurkat T cells) [nM]
Cc1cc(CN2CCC[C@H](C)C2)cc2c(=O)c(-c3cccc(C4(c5nncn5C)CC(F)C4)c3)coc12 (stereo partly drawn) [Compound 69, 3-(3-((1R,3S)-3-fluoro-1-(4-methyl-4H-1,2,4-triazol-3-yl)cyclobutyl)phenyl)-8-methyl-6-(((S)-3-methylpiperidin-1-yl)methyl)-4H-chromen-4-one]	15	552
Cc1cc(CN2CCC[C@H](C)C2)cc2c(=O)c(-c3cccc(C(F)(c4nncn4C)C4CC4)c3)coc12 (stereo partly shown) [Compound 120]	17.5	688
Cc1c(F)c(CNC2(C)CCC2)cc2c(=O)c(-c3cccc([C@]4(c5nncn5C)C[C@@H](C)C4)c3)coc12 [Compound 122, 7-fluoro-8-methyl-3-(3-(cis-3-methyl-1-(4-methyl-4H-1,2,4-triazol-3-yl)cyclobutyl)phenyl)-6-(((1-methylcyclobutyl)amino)methyl)-4H-chromen-4-one]	12.3	555
(1S,3R)-3-(4-methyl-4H-1,2,4-triazol-3-yl)-3-(3-(8-methyl-6-(((S)-3-methylpiperidin-1-yl)methyl)-4-oxo-4H-chromen-3-yl)phenyl)cyclobutylacetonitrile [Compound 68]	17.8	456

Further lines, results first:

IC50 [1] [nM]	EC50 (Jurkat T cells) [nM]	Compound
5.4	53.6	Cc1cc(C(C)NC2(C)CCC2)cc2c(=O)c(-c3cccc([C@]4(c5nncn5C)C[C@@H](C)C4)c3)coc12 (stereo partly drawn) [Compound 123, 8-methyl-3-(3-(cis-3-methyl-1-(4-methyl-4H-1,2,4-triazol-3-yl)cyclobutyl)phenyl)-6-(1-((1-methylcyclobutyl)amino)ethyl)-4H-chromen-4-one]
19.7	383	Cc1c(F)c(CN2CCC[C@H](C)C2)cc2c(=O)c(-c3cccc(C(c4nncn4C)C4CC4)c3)coc12 (stereo partly drawn) [Compound 124, 3-(3-(cyclopropyl(4-methyl-4H-1,2,4-triazol-3-yl)methyl)phenyl)-7-fluoro-8-methyl-6-(((S)-3-methylpiperidin-1-yl)methyl)-4H-chromen-4-one]
11.1	80.5	CC(NC1(C)CCC1)c1cc(C(F)(F)F)c2ncc(-c3cccc([C@]4(c5nncn5C)C[C@@H](C)C4)c3)c(=O)n2c1 (stereo partly drawn) [Compound 126, 3-(3-(cis-3-methyl-1-(4-methyl-4H-1,2,4-triazol-3-yl)cyclobutyl)phenyl)-7-(1-((1-methylcyclobutyl)amino)ethyl)-9-(trifluoromethyl)-4H-pyrido[1,2-a]pyrimidin-4-one]
28.6	279	Cc1cc(CN2CCC[C@H](C)C2)cc2c(=O)c(-c3cccc(C(F)(c4nncn4C)C(F)(F)F)c3)coc12 (stereo partly drawn) [Compound 128, 8-methyl-6-(((S)-3-methylpiperidin-1-yl)methyl)-3-(3-(1,2,2,2-tetrafluoro-1-(4-methyl-4H-1,2,4-triazol-3-yl)ethyl)phenyl)-4H-chromen-4-one]
